“And” between values parts separate entries of the source, which are not always exact repeats. Identical values can stand only once. “Also recorded” adds a separate entry of the source. Marks after values point to notes of the source that are not given here.
Tests used:
E. coli [1] = assay: Checkerboard assay (FIC index); format: cell-based, Escherichia coli; conditions: antibiotic combined with PEP35
Protocol: (§1) Checkerboard assays were carried out as described by Bonapace et al.
(§2) Diagnostic Microbiology and Infectious Diseases 2002; 44:363-366. In brief, checkerboard assays were performed in 96 well microtitre trays using an 8-by-8 well configuration. […] 96-well custom designed microtitre plates contained 100 ul/well of cation adjusted Mueller-Hinton broth (eg. for Enterobacteriaceae) with or without lysed horse blood (2-5% V/V) [eg. for S. pneumoniae] and were inoculated to achieve a final concentration of approximately 5×10^5 CFU/ml and incubated in ambient air for 24 hours prior to reading. Colony counts were performed periodically to confirm inocula. Quality control was performed every two weeks using a variety of ATCC QC organisms including; S. pneumoniae 49619, S. aureus 29213, E. faecalis 29212, E. coli 25922 and P. aeruginosa 27853. […] All peptides were assessed for synergy with β-lactams and vancomycin. For all antimicrobials as well as the peptides, CLSI criteria were used.
(§3) The fractional inhibitory concentration index (FIC index) was used to interpret synergy, antagonism or additivity/indifference. FIC index=FIC of drug A+FIC of drug B where:
(§4) The FIC of drug A and drug B was calculated as follows, FIC drug A=MIC of drug A in combination/MIC of drug A alone and FIC of drug B=MIC of drug B in combination/MIC of drug B alone. Synergy was defined as FIC index ≦0.5, additivity/indifference defined as a FIC between 0.5 and 4 and antagonism defined as an FIC index >4.
(§5) The checkerboard assays were carried out as described by Eliopoulos and Moellering (Chapter 9) in Antibiotic in Laboratory Medicine, Lorian Ed. 1996 as well as Bonapace et al. Diagnostic Microbiology and Infectious Diseases 2002; 44:363-366 and Bonapace et al. Diagnostic Microbiology and Infectious Diseases 2000; 38:43-50. In brief, checkerboard assays were performed in 96 well microtitre trays using an 8-by-8 well configuration. […] 96-well custom designed microtitre plates contained 100 ul/well of cation adjusted Mueller-Hinton broth (eg. for Enterobacteriaceae) with or without lysed horse blood (2-5% V/V) [eg. for S. pneumoniae] and were inoculated to achieve a final concentration of approximately 5×10^5 CFU/ml and incubated in ambient air for 24 hours prior to reading. Colony counts were performed periodically to confirm inocula. Quality control was performed every two weeks using a variety of ATCC QC organisms including; S. pneumoniae 49619, S. aureus 29213, E. faecalis 29212, E. coli 25922 and P. aeruginosa 27853. For all antimicrobials as well as PEP35, CLSI criteria was used.
(§6) The FIC of drug A and drug B is calculated as follows, FIC drug A=MIC of drug A in combination/MIC of drug A alone and FIC of drug B=MIC of drug B in combination/MIC of drug B alone. Synergy is defined as FIC index ≦0.5, additivity/indifference FIC >0.5-4 and antagonism FIC index >4.
(§7) Antimicrobials used included PEP35, cefazolin, ceftriaxone, vancomycin, linezolid, tigecycline and daptomycin versus Gram-positive cocci and PEP35, gentamicin, levofloxacin, piperacillin/tazobactam, meropenem and colistin (Polymyxin E) versus Gram-negative bacilli. These agents were obtained as laboratory grade powders from their respective manufacturers. Stock solutions were prepared and dilutions made as described by the Clinical Laboratory Standards Institute (2005 CLSI).
Organisms included Gram-positive cocci (2 strains of each): Methicillin-susceptible Staphylococcus aureus (MSSA), community-associated (CA) and healthcare-associated (HA) methicillin-resistant Staphylococcus aureus (MRSA), vancomycin-intermediate Staphylococcus aureus (VISA), vancomycin-resistant Staphylococcus aureus (VRSA), methicillin-resistant Staphylococcus epidermidis (MRSE), Streptococcus pyogenes, Streptococcus agalactiae, Streptococcus pneumoniae, Enterococcus faecalis, Enterococcus faecium and vancomycin-resistant enterococcus (VRE). […]

P. aeruginosa = assay: Checkerboard assay (FIC index); format: cell-based, Pseudomonas aeruginosa; conditions: antibiotic combined with PEP35
Protocol: as §5, §3, §6, §7
(§8) Organisms included Gram-positive cocci (2 strains of each): Methicillin-susceptible Staphylococcus aureus (MSSA), community-associated (CA) and healthcare-associated (HA) methicillin-resistant Staphylococcus aureus (MRSA), vancomycin-intermediate Staphylococcus aureus (VISA), vancomycin-resistant Staphylococcus aureus (VRSA), methicillin-resistant Staphylococcus epidermidis (MRSE), Streptococcus pyogenes, Streptococcus agalactiae, Streptococcus pneumoniae, Enterococcus faecalis, Enterococcus faecium and vancomycin-resistant enterococcus (VRE). Gram-negative bacilli tested (2 strains of each) included: E. coli, Pseudomonas aeruginosa, Klebsiella pneumoniae, K. oxytoca, Enterobacter cloacae, P. mirabilis and Stenotrophomonas maltophilia. MIC testing, following two subcultures from frozen stock were determined by the CLSI 2005 approved broth microdilution method.

K. pneumoniae = assay: Checkerboard assay (FIC index); format: cell-based, Klebsiella pneumoniae; conditions: antibiotic combined with PEP35
Protocol: as §5, §3, §6, §7, §8

K. oxytoca = assay: Checkerboard assay (FIC index); format: cell-based, Klebsiella oxytoca; conditions: antibiotic combined with PEP35
Protocol: as §5, §3, §6, §7, §8

E. cloacae = assay: Checkerboard assay (FIC index); format: cell-based, Enterobacter cloacae; conditions: antibiotic combined with PEP35
Protocol: as §5, §3, §6, §7, §8

P. mirabilis [2] = assay: Checkerboard assay (FIC index); format: cell-based, Proteus mirabilis; conditions: antibiotic combined with PEP35
Protocol: as §5, §3, §6, §7, §8

S. maltophilia = assay: Checkerboard assay (FIC index); format: cell-based, Stenotrophomonas maltophilia; conditions: antibiotic combined with PEP35; S. maltophilia 73062
Protocol: as §5, §3, §6, §7, §8

P. mirabilis [3] = assay: MIC, agent alone (broth microdilution); format: cell-based, Proteus mirabilis; conditions: footnote to Table 12; P. mirabilis 80267 and 81569
Excerpt: as §8

CA-MRSA [4] = assay: MIC (CLSI broth dilution), agent alone; format: cell-based, Staphylococcus aureus; conditions: agent alone
Protocol: (§9) VISA (strains 92, 95 and 96), VRSA (strains 105 and 106) and E. coli (strain 69717) isolates were also tested. One MSSA was used as a control. All MICs were assessed using CLSI guidelines. Also assessed was the activity of cefazolin, ceftriazone, meropenem, and a piperacillin/tazobactam combination antibiotic. Minimum inhibitory concentration (MIC) is the lowest concentration of an antimicrobial that will inhibit the visible growth of a microorganism after incubation.
(§10) Antimicrobial Susceptibility Testing: A custom designed panel of antimicrobials was created. […] These agents were obtained as laboratory grade powders from their respective manufacturers. Stock solutions were prepared and dilutions made as described by the Clinical Laboratory Standards Institute (2005 CLSI). Following two subcultures from frozen stock the MICs of the antimicrobial agents for the isolates were determined by the CLSI 2005 approved broth macrodilution method. Briefly, test tubes containing doubling antibiotic dilutions (2 ml per tube) of cation adjusted Mueller-Hinton broth (eg. for Enterobacteriaceae) with or without lysed horse blood (2-5% V/V) [eg. for S. pneumoniae] were inoculated to achieve a final concentration of approximately 5×10^5 CFU/ml and incubated in ambient air for 24 hours prior to reading. Colony counts were performed periodically to confirm inocula. Quality control was performed every two weeks using a variety of ATCC QC organisms including; S. aureus 29213, E. faecalis 29212, E. coli 25922 and P. aeruginosa 27853.
(§11) One MSSA was used as a control. All MICs were assessed using CLSI guidelines.
(§12) One MS SA and ATCC reference strains were used as controls. All MICs were assessed using CLSI guidelines.

HA-MRSA [5] = assay: MIC (CLSI broth dilution), agent alone; format: cell-based, Staphylococcus aureus; conditions: agent alone
Protocol: as §9, §10, §11, §12

MSSA = assay: MIC (CLSI broth dilution), agent alone; format: cell-based, Staphylococcus aureus; conditions: MSSA 79333, agent alone
Protocol: as §9, §10, §11, §12

VRSA [6] = assay: MIC (CLSI broth dilution), agent alone; format: cell-based, Staphylococcus aureus; set-up: unit not given beside the values
Protocol: as §9
(§13) Antimicrobial Susceptibility Testing: A custom designed panel of antimicrobials was created. The panel included: PEP35, penicillin, piperacillin/tazobactam, cefazolin, ceftriaxone, meropenem, clarithromycin, clindamycin, gentamicin, amikacin, vancomycin, ciprofloxacin, levofloxacin, moxifloxacin, linezolid, trimethoprim/sulfamethoxazole and doxycycline. These agents were obtained as laboratory grade powders from their respective manufacturers. Stock solutions were prepared and dilutions made as described by the Clinical Laboratory Standards Institute (2005 CLSI). Following two subcultures from frozen stock the MICs of the antimicrobial agents for the isolates were determined by the CLSI 2005 approved broth macrodilution method. Briefly, test tubes containing doubling antibiotic dilutions (2 ml per tube) of cation adjusted Mueller-Hinton broth (eg. for Enterobacteriaceae) with or without lysed horse blood (2-5% V/V) [eg. for S. pneumoniae] were inoculated to achieve a final concentration of approximately 5×10^5 CFU/ml and incubated in ambient air for 24 hours prior to reading. Colony counts were performed periodically to confirm inocula. Quality control was performed every two weeks using a variety of ATCC QC organisms including; S. aureus 29213, E. faecalis 29212, E. coli 25922 and P. aeruginosa 27853. For all antimicrobials as well as PEP35, CLSI criteria were used.
as §11

VISA = assay: MIC (CLSI broth dilution), agent alone; format: cell-based, Staphylococcus aureus; set-up: unit: µg/mL
Protocol: as §9, §13, §11

E. coli [7] = assay: MIC (CLSI broth dilution), agent alone; format: cell-based, Escherichia coli; conditions: agent alone
Protocol: as §9, §13, §12

CA-MRSA [8] = assay: Antibiotic MIC with fixed concentration of peptide; format: cell-based, Staphylococcus aureus; conditions: versus CA-MRSA; Table 13
Protocol: as §11, §12

HA-MRSA [9] = assay: Antibiotic MIC with fixed concentration of peptide; format: cell-based, Staphylococcus aureus; conditions: HA-MRSA strains; Table 13
Protocol: as §11, §12

VRSA [10] = assay: Antibiotic MIC with fixed concentration of peptide; format: cell-based, Staphylococcus aureus; conditions: VISA and VRSA; Table 13
Protocol: as §11

[11] = tested on: MRSA, VISA, VRSA and E. coli; assay: MIC, agent alone, panel statement; format: cell-based; conditions: versus MRSA, VISA, VRSA and E. coli
Protocol: as §9, §13

[12] = tested on: MRSA, VISA, VRSA and E. coli; assay: Checkerboard assay, panel statement; format: cell-based; conditions: with β-lactams versus MRSA, VISA, VRSA and E. coli
Protocol: as §1, §2, §3, §4
The fractional inhibitory concentration index (FIC index) was used to interpret synergy, antagonism or additivity/indifference. FIC index=FIC of drug A+FIC of drug B where the FIC of drug A and drug B was calculated as follows, FIC drug A=MIC of drug A in combination/MIC of drug A alone and FIC of drug B=MIC of drug B in combination/MIC of drug B alone. Synergy was defined as FIC index ≦0.5, additivity/indifference defined as an FIC of between 0.5 and 4 and antagonism defined as an FIC index >4.

In the case of colistin (Polymyxin E), the “Avg ΣFIC (range)” value (E. coli [1]; E. coli 69716) was 0.71 (0.31-1.06), the “Avg ΣFIC (range)” value (E. coli [1]; E. coli 70752) was 0.81 (0.31-1.25) and the “Avg ΣFIC (range)” value (P. aeruginosa; P. aeruginosa 70849) was 0.70 (0.28-1.12). For the same substance, the “Avg ΣFIC (range)” value (P. aeruginosa; P. aeruginosa 71841) was 0.89 (0.53-1.25), the “Avg ΣFIC (range)” value (K. pneumoniae; K. pneumoniae 70508) was 0.67 (0.31-1.06) and the “Avg ΣFIC (range)” value (K. pneumoniae; K. pneumoniae 77081) was 0.61 (0.18-1.06). For the same substance, the “Avg ΣFIC (range)” value (K. oxytoca; K. oxytoca 75316) was 0.41 (0.24-0.56) and 0.62 (0.18-1.06) and 0.65 (0.18-1.12), the “Avg ΣFIC (range)” value (K. oxytoca; K. oxytoca 76874) was 0.83 (0.31-2.03) and the “Avg ΣFIC (range)” value (E. cloacae; E. cloacae 80194) was 0.70 (0.31-1.12). For the same substance, the “Avg ΣFIC (range)” value (E. cloacae; E. cloacae 83128) was 0.77 (0.5-1.06), the “Avg ΣFIC (range)” value (P. mirabilis [2]; P. mirabilis 80267) was >1** and the “Avg ΣFIC (range)” value (P. mirabilis [2]; P. mirabilis 81569) was >1**. The “Avg ΣFIC (range)” value (S. maltophilia) was 0.88 (0.53-1.25) and the MIC (P. mirabilis [3]) was “COL MIC > 4096”.
“LKQKIKHVVKLKVVVKLRSQLAKKKQS (hybPEP35-1 conservative substitution human peptide variant) [human peptide variant of PEP35 with conservative substitutions]” was tested, and the MIC (CA-MRSA [4]; CA-MRSA 69615 (USA400)) was 1024/1024, the MIC (CA-MRSA [4]; CA-MRSA 70857 (USA400)) was 1024/1024 and the MIC (HA-MRSA [5]; HA-MRSA 70798 (USA100/800), in µg/mL) was > 2048 and 1024. The MIC (HA-MRSA [5]; HA-MRSA 77090 (USA100/800), in µg/mL) was 1024 and 512, the MIC (HA-MRSA [5]; HA-MRSA 77098 (USA100/800)) was “≧2048/2048^” and the MIC (MSSA) was 128/128. For the same substance, the MIC (MSSA; in µg/mL) was 256, the MIC (VRSA [6]; VRSA 105) was 128/128 and the MIC (VRSA [6]; VRSA 105, in µg/mL) was 256 and 128. For the same substance, the MIC (VRSA [6]; VRSA 106, in µg/mL) was 256, the MIC (VRSA [6]; VRSA 106, listed as hybPEP35, in µg/mL) was 128 and 256 and the MIC (VISA; VISA 92) was >2048/>2048. For the same substance, the MIC (VISA; VISA 95) was >2048/2048, the MIC (VISA; VISA 96, in µg/mL) was 1024 and the MIC (VISA; VISA 96, listed as hybPEP35, in µg/mL) was 1024 and 2048. The MIC (E. coli [7]; E. coli 69716, listed as hybPEP35-1, in µg/mL) was 64, the MIC (E. coli [7]; E. coli 69716, listed as hybPEP35, in µg/mL) was 128 and 64 and the MIC (E. coli [7]; E. coli 70752) was 64/64. The MIC (E. coli [7]; E. coli 70752, in µg/mL) was 32, the “synergy with β-lactams (in words)” value (CA-MRSA [8]) was “Strong synergy” and the “synergy with β-lactams (in words)” value (HA-MRSA [9]) was “weak synergy; also recorded: stronger synergy”. The “synergy with β-lactams (in words)” value (VRSA [10]) was “mild to strong”, the “activity (in words)” value [11] was “no activity; also recorded: not active” and the “synergistic activity (in words)” value [12] was “synergistic activity”.
